Source: patent US20110146678A1, “PROCESS FOR IMPROVING CRYSTALLINITY” (priority 2008, published 2011)

Legend:
Assay type in all cases: physicochemical
[1] = Storage stability of FPF of binary DPI formulations at 25° C./75% RH
Experimental: All formulations were stored for one and three months at 25° C./75% RH. The FPF of the formulation containing micronized fluticasone propionate decreased by almost 50% after storage for one month and almost 70% after storage for three months compared to the FPF at t=0. However, the FPF of formulations containing particles prepared by the current invention were not as affected following storage in stress conditions. The FPF of sample 3 decreased 6% after storage for one month and decreased 3% after storage for three months compared to the FPF at t=0. The FPF of sample 2 decreased 7% after one months storage and 28% after three months storage compared to the FPF at t=0. There was a small yet statistically significant decrease, 29%, in the fine particle fraction of the formulation containing sample 4 which was prepared by alternative precipitation approach after one month with a decrease of 24% after 3 months storage compared to the FPF at t=0. This may be related to the planar morphology of the particles, and therefore, the particles are likely to develop greater adhesion to the lactose as result of capillary forces. It is clear that the FPF of samples 2 and 3 maintained a higher FPF than the micronized sample or sample 4 when stored for one or three months in the conditions described. The FPF of samples 2 and 3 decreased by a smaller percentage than the micronized sample when stored for one or three months in the conditions described. […] Sample 4 has a much lower FPF than samples 2 and 3 after storage for one or three months.

[2] = Surface roughness by TappingMode AFM; conditions: 1 μm×1 μm areas, SD in brackets; for Ra(± nm): mean surface roughness; for Rq(± nm): root mean square roughness
Experimental: The degree of corrugation and surface morphology of samples was quantified using AFM. The surface topography and roughness measurements of particles of this invention were investigated using a Nanoscope IIIa controller, a Multimode AFM and a J-type scanner (all DI, Santa Babara, Calif., USA). All AFM surface topography images were recorded in Tapping Mode operation, in which, imaging was conducted using TESP Olympus tips (Di, Cambridge, UK) at a scan rate of 1 Hz. Surface roughness measurements were analysed over a 1 μm×1 μm area. To quantify the variations in the surface properties of the crystal surfaces, the root-mean-squared surface roughness measurement (Rq) and the mean surface roughness (Ra) of the height deviations of the surface asperities were computed.
(§1) The surface roughness and surface area of micronized Fluticasone Propionate (FP), sample 3 of FP prepared by the current invention and sample 4 of FP, as described in Example 2, were determined using atomic force microscopy (AFM) and BET surface area analysis, respectively. The roughness of imaged areas was quantified using the mean (Ra) and root mean square (Rq) of the variations in the height of the imaged surface. Furthermore, the surface area of samples was determined by a five-point BET nitrogen adsorption analysis.
The surface topography of the FP samples was investigated with TappingMode™ atomic force microscopy (AFM) using a Multimode AFM, J-type scanner, Nanoscope IIIa controller (all from DI, Cambridge, UK) and a silicon tip (model number OMCL-AC240TS, Olympus, Japan) to image three randomly selected 1 μm×1 μm square areas on the surface of particles of each material with a resolution of 512×512 pixels and a scan rate of 1 Hz. The roughness of imaged areas was quantified using the mean (Ra) and root mean square (Rq) of the variations in the height of the imaged surface, as calculated by the AFM software using the following equations: […]
where np is the number of points in the image and yi is the distance of point i from the centre line.

[3] = Specific surface area by five-point BET nitrogen adsorption
Experimental: as §1, with “analysis. The specific surface areas of the FP samples were measured using a Gemini 2360 surface area analyser (Micromeritics Instrument Corporation, Norcross, USA). A five-point BET nitrogen adsorption analysis was carried out after degassing the samples for 24 hours in a FlowPrep 060 degasser (Micromeritics Instrument Corporation, Norcross, USA).” for “analysis.”

[4] = storage one month at 25° C./75% RH
[5] = storage three months at 25° C./75% RH

Row | Structure (SMILES) | decrease of FPF compared to FPF at t=0 [1, 4] | decrease of FPF compared to FPF at t=0 [1, 5] | Ra(± nm) [2] | Rq(± nm) [2] | Surface Area [3] | decrease of FPF compared to FPF at t=0 ([1]; storage one month at 25° C./75% RH, listed as micronized fluticasone propionate) | decrease of FPF compared to FPF at t=0 ([1]; storage three months at 25° C./75% RH, listed as micronized fluticasone propionate)
1 | CCC(=O)O[C@]1(C(=O)SCF)[C@H](C)C[C@H]2[C@@H]3C[C@H](F)C4=CC(=O)C=C[C@]4(C)[C@@]3(F)[C@@H](O)C[C@@]21C [Sample 3, Fluticasone propionate] | 6% | 3% | 53.79 (2.11) nm | 72.11 (1.35) nm | 10.79 m^2/g | – | –
2 | CCC(=O)O[C@]1(C(=O)SCF)[C@H](C)C[C@H]2[C@@H]3C[C@H](F)C4=CC(=O)C=C[C@]4(C)[C@@]3(F)[C@@H](O)C[C@@]21C [Sample 2, Fluticasone propionate] | 7% | 28% | – | – | – | – | –
3 | CCC(=O)O[C@]1(C(=O)SCF)[C@H](C)C[C@H]2[C@@H]3C[C@H](F)C4=CC(=O)C=C[C@]4(C)[C@@]3(F)[C@@H](O)C[C@@]21C [Sample 4, fluticasone propionate, reference compound] | 29% | 24% | 11.20 (1.55) nm | 16.52 (3.13) nm | 7.49 m^2/g | – | –
4 | CCC(=O)O[C@]1(C(=O)SCF)[C@H](C)C[C@H]2[C@@H]3C[C@H](F)C4=CC(=O)C=C[C@]4(C)[C@@]3(F)[C@@H](O)C[C@@]21C [micronized FP, Fluticasone Propionate] | – | – | 30.97 (12.25) nm | 45.07 (11.76) nm | 6.55 m^2/g | ~50% | ~70%
